Laboratory results from patent US11617748B2, “Meclozine derivatives and diclazuril derivatives for use in the prevention and/or the treatment of disorders associated to the inflammation induced by P. acnes” (priority 2016, dated 2023).

What was measured:
Format in all cases: cell-based, human
[1] = tested on: HaCaT cells; assay: MTT cell viability assay on HaCaT keratinocytes
Protocol: Cell culture, pretreatment and stimulation. The immortalized human keratinocyte cell line HaCaT, fibroblast MRC5 were grown in Dulbecco's modified Eagle's medium-Glutamax-I (DMEM) with 1 mM sodium pyruvate. […] DMEM and RPMI were supplemented with 0.1% and 10% heat-inactivated fetal calf serum (Invitrogen), and an antibiotic/antimycotic solution (10 U/ml Pencillin, 10 μg/ml Streptomycin, 0.25 μg/ml Amphoterin) at 37° C. in humidified atmosphere containing 5% CO2 as described (Life Technologie). Primary human keratinocytes (NHDK) and fibroblast (HDF) were grown in the KGM-Gold and in FGM-2 Bullet Kit, respectively, as described by the manufacturer (Lonza). The immortalized cell lines were routinely tested to assess the absence of Mycoplasma infection. Cells, cultivated in 6- or 96-well polystyrene plates, were pretreated with appropriate molecule solution for 1 to 48 h at 37° C. in the dark at the appropriate concentration. Then, for stimulation, cells were incubated for 15 min to 24 h with the P. acnes suspension adjusted at the appropriate concentration at 37° C. in 5% CO2. For experiences using an in vitro model of psoriasis, the primary human keratinocytes (NHDK) were grown in culture medium for 24 hours.
Cell viability assays. Viability of cells was estimated by using the MTT assay where cells were incubated with a 0.2% MTT solution in cell culture medium for 4 h at 37° C. The MTT solution was then discarded and DMSO added to solubilize the MTT-formazan cristals produced in living cells. After thorough mixing, the absorbance was measured at 540 nm.

[2] = tested on: ERK; assay: Western blot of p-ERK/ERK in P. acnes-stimulated HaCaT cells; conditions: 24 h pre-treatment; for phosphorylation of ERKs induced by P. acnes: 10 μM; for phosphorylation of ERK induced by P. acnes: 25 μM
Protocol: Western Blot analysis. Whole cell protein extracts (25 μg) were separated by electrophoresis (LDS-PAGE) under denaturing conditions with NuPAGE Novex 4-12% Bis-Tris gel (1 mm, 12 wells, Invitrogen, UK) and proteins were transferred onto nitrocellulose membranes and saturated in 20 ml of saturation buffer consisting of TBS 1× (Tris Buffered Saline) containing 200 mM Tris, 1.4 M NaCl (pH 7.6), 5% no fat milk, 0.1% Tween 20 for 1 h. After washing three times for 15 min with 15 ml of TBS/T buffer [1×TBS, 0.1% Tween-20], membranes were incubated overnight with gentle mixing at 4° C. with 10 ml of rabbit polyclonal primary antibodies against human ICAM-1 (SC-7891, 1:500), PPARα (SC-398394, 1:250), PPARβ (SC-74517, 1:200), PPARγ (SC-7196, 1:500), IκB (SC-371, 1:500), p-IκB (SC-7977, 1:500), Cox-2 (SC-7951, 1:250), p-mTOR (CS, Ref 2974, 1:1000), mTOR (CS, Ref 2972, 1:1000), p-p38 (SC-17852, 1:500), p38 (SC-535, 1:250), ERK (SC-94, 1:500), JNK (SC-571, 1:500), and mouse monoclonal primary antibodies against human p-PI3 kinase (CS, Ref 4228, 1:250), PI3 kinase (CS, Ref 4257, 1:250), p-Akt1/2/3 (SC-81433, 1:500), p-ERK (SC-7383, 1:500), p-JNK (SC-6254, 1:500), -actin used to control loading, (SC-47778, 1:1000) diluted in TBS/T supplemented with 5% BSA (antibodies were purchased from Santa Cruz Biotechnology, Inc., Santa Cruz, Calif., USA abbreviated SC; and from Cell Signaling Technology, Inc. Leiden, The Netherlands abbreviated CS above). After washing to remove unbound antibodies, bound primary antibodies were detected by incubation for 1 h using secondary antibody against rabbit- and mouse IgG (Santa Cruz Biotechnology, SC-2357, 1:5000 and SC-2005, 1:5000, respectively). Unbound material was removed by washing and peroxidase activity was detected in a chemiluminescence assay (WesternBright ECL, Advansta, Menlo Park, USA).
The molecular basis for the inhibition of IL-8 production by diclazuril and meclozine has been investigated, in particular it has been evaluated if they interfered with signaling pathways known to be activated when keratinocytes are stimulated with P. acnes. It has first been confirmed the activation of IL-8 production when cells were stimulated by P. acnes while pre-treatment with both, diclazuril and meclozine, inhibit such production (FIG. 4A).
We also shown that the activation of HaCaT keratinocytes by P. acnes led to the activation of p-ERK, p-p38, p-JNK, p-PKC, p-Akt, p-mTOR (FIG. 15, panel P. acnes alone) and p-PI3K (FIG. 16, panel P. acnes alone).

[3] = tested on: PPARγ; assay: Western blot of PPARγ expression in P. acnes-stimulated HaCaT cells; conditions: 25 μM, 24 h pre-treatment
Protocol: Western Blot analysis. Whole cell protein extracts (25 μg) were separated by electrophoresis (LDS-PAGE) under denaturing conditions with NuPAGE Novex 4-12% Bis-Tris gel (1 mm, 12 wells, Invitrogen, UK) and proteins were transferred onto nitrocellulose membranes and saturated in 20 ml of saturation buffer consisting of TBS 1× (Tris Buffered Saline) containing 200 mM Tris, 1.4 M NaCl (pH 7.6), 5% no fat milk, 0.1% Tween 20 for 1 h. […] After washing to remove unbound antibodies, bound primary antibodies were detected by incubation for 1 h using secondary antibody against rabbit- and mouse IgG (Santa Cruz Biotechnology, SC-2357, 1:5000 and SC-2005, 1:5000, respectively). Unbound material was removed by washing and peroxidase activity was detected in a chemiluminescence assay (WesternBright ECL, Advansta, Menlo Park, USA). […]

[4] = tested on: IL-8 production; assay: P. acnes-induced IL-8 production in HaCaT keratinocytes (ELISA); conditions: HaCaT cells pre-treated 24 h, no P. acnes stimulation

SMILES | impact on cell viability (MTT), 48 h pre-treatment [1] | phosphorylation of ERKs induced by P. acnes [2] | phosphorylation of ERK induced by P. acnes [2] | expression of PPARγ [3] | IL-8 production in pretreated cells without being stimulated [4]
N#CC(c1ccc(Cl)cc1)c1c(Cl)cc(-n2ncc(=O)[nH]c2=O)cc1Cl (stereo not drawn) [diclazuril, Diclazuril] | without any major impact on cell viability | prevented the phosphorylation of ERKs | prevented the phosphorylation | no change | no change
Cc1cccc(CN2CCN(C(c3ccccc3)c3ccc(Cl)cc3)CC2)c1 (stereo not drawn) [meclozine, Meclozine] | without any major impact on cell viability | prevented the phosphorylation of ERKs | prevented the phosphorylation |  | no change
